Experimental data published in US12691124B2, “Methods of controlling and improving brain health” (ICAHN SCHOOL OF MEDICINE AT MOUNT SINAI, priority 2019, dated 2026).

Columns and labels:
[1] = system: primary cortical neurons; assay: Axion multielectrode array recording of neuronal firing; assay type: cell-based, mouse
Method: Axion Recordings. A 48-well multielectrode array plate (Axion) was coated with 0.1% PEI for 1 hour at 37 degrees and washed four times with deionized water. Plates were dried overnight at room temperature in a sterile hood. Plates were incubated with 20 ug/ml laminin for one hour at 37 degrees before cells were seeded onto the plate. Primary cortical neurons were plated 50,000 per well. Plates were equilibrated on the Axion Maestro system at 37 degrees C. for 5 minutes before each 10 minute recording session. Baseline activity was recorded at day 7 before cells were treated with either I-BET858 (1 um) or DMSO. Electrical activity was recorded every day until day 21 and then at regular intervals until activity was no longer detected.
Therefore to determine the effect of chronic BET inhibition on electrical activity, neurons were cultured on the Axion Microelectrode array system in the presence of IBET858. Primary cortical neurons first show electrical activity at day 7 which gradually increases over time, peaking around day 14 consistent with published time courses of synaptogenesis and electrical activity in vitro. […] In one experiment, IBET858 treated neurons lived until day 77, 86% longer than control neurons.
One could argue that the protective effect of IBET858 was caused by a decreased sensing of glutamate levels. […] To further explore this hypothesis, neuronal firing in response to a sub-lethal dose of glutamate (50 μM) was measured using the Axion system (FIG. 10A). At day 14, neurons treated with 50 μM glutamate increased their firing rate 127.4+/−44.4% compared to baseline. […] Therefore, it is appropriate to use glutamate as a neuronal death assay.

[2] = system: primary cortical neurons; assay: Aβ1-43 oligomer induced neuronal death; assay type: cell-based, mouse; settings: Aβ1-43 oligomers, 1 week pretreatment
From the text: While glutamate toxicity is a widely used and clinically relevant assay, there are other factors that contribute to neuronal death in vivo such as lack of oxygen which occurs after stroke or protein aggregates which are observed in many neurodegenerative disorders. To understand if the observed protective effect is specific to glutamate toxicity, neurons were exposed to either hypoxic (1% O2) environments or Aβ1-43 oligomers (FIGS. 10E and 10F).
IBET treatment protects neurons from neurotoxin-induced cell death (FIGS. 22C-22E). Dot plots show the percentage of cells that are propidium iodide negative after different neurotoxic insults when pre-treated with either control or iBET for 1 week. 6 hours and 24 hours after 1 mM glutamate exposure are shown in FIG. 22C; 18 hours, 24 hours, and 48 hours of hypoxia (1% O2) are shown in FIG. 22D; and 48 hours and 72 hours of Aβ1-43 oligomer exposure (10 μM) are shown in FIG. 22E. Two-way repeated measures ANOVA with multiple comparisons, n=3 per group, ***p<0.001. Experiments were repeated a minimum of three times.

Compound: CC(=O)N1c2ccc(-c3ccc(CN4CCCCC4)cc3)cc2[C@H](Nc2ccccc2)CC1C (stereo in doubt) [IBET858]
- day until which neurons lived, one experiment ([1]; 1 μM): 77 days
- lifetime longer than control neurons, one experiment ([1]; 1 μM): 86%
- neuronal survival (firing) after washout ([1]; 1 uM for 1 week followed by washout at day 14): prolonged neuronal survival that is maintained even in the absence of IBET
- activity patterns of long-lived treated neurons ([1]; 1 uM from day 7): maintain normal activity patterns
- day until which neurons continued to fire ([1]; 1 μM, control ceased firing on average at day 29): 45 days
- increase in firing rate compared to baseline after glutamate ([1]; 50 μM glutamate, day 14, control 127.4+/−44.4%): 129.3+/−26.2%
- loss of neurons due to toxic Aβ oligomers [2]: significantly prevents loss of neurons
